# Data published in ChEMBL document CHEMBL1821579, “Discovery of amide replacements that improve activity and metabolic stability of a bis-amide smoothened antagonist hit” (Bioorg Med Chem Lett, 2011).
# Active and inactive are the calls of the source. No cut-off for these calls is given here.
# Assays:
# [1] = target: Protein smoothened (Homo sapiens, UniProt Q99835); assay: Antagonist activity at human SMO expressed in HEPM cells assessed as reduction of GLI expression after 24 hrs by Quantigene assay; type: functional, cell-based
# Protein smoothened (Homo sapiens, UniProt Q99835), sequence (Q99835 whole entry): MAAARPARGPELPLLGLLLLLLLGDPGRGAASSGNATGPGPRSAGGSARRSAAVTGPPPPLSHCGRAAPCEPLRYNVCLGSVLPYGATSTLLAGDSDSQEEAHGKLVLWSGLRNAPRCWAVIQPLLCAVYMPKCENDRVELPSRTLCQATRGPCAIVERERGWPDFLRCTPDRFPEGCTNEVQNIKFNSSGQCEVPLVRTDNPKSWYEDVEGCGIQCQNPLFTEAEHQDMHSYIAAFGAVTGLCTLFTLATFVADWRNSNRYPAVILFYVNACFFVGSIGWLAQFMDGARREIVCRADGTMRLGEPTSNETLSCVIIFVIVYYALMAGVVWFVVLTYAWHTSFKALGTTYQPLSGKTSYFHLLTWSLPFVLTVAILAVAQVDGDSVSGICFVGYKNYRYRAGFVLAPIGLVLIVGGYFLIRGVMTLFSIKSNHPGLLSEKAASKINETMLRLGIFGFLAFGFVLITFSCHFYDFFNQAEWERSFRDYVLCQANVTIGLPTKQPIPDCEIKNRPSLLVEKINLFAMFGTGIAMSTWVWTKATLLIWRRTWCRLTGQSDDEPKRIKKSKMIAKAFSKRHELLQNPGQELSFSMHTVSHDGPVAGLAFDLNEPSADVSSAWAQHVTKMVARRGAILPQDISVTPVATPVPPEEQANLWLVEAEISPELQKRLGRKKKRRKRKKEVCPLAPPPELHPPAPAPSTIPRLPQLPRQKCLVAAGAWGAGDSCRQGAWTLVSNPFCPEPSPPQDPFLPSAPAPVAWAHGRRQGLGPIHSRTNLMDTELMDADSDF
# [2] = Clearance in rat at 0.5 mg/kg, iv; type: ADME, organism-based; design: dose 0.5 mg/kg, route intravenous; settings: in vivo
# [3] = Clearance in rat liver microsomes assessed as compound metabolized after 30 mins; type: ADME, Microsome; settings: read-out: Activity
# [4] = Oral bioavailability in rat at 5 mg/kg; type: ADME, organism-based; settings: in vivo
# [5] = Metabolic stability in rat hepatocyte assessed as compound remaining at 30 mins; type: ADME, cell-based; settings: hepatocytes, read-out: Stability
# [6] = target: Protein smoothened (Mus musculus, UniProt P56726); assay: Antagonist activity at mouse SMO expressed in NIH/3T3 cells transfected with Gli-dependent luciferase-reporter after 15 hrs by luciferase reporter gene assay using luminometer; type: functional, cell-based
# Protein smoothened (Mus musculus, UniProt P56726), sequence (P56726 whole entry): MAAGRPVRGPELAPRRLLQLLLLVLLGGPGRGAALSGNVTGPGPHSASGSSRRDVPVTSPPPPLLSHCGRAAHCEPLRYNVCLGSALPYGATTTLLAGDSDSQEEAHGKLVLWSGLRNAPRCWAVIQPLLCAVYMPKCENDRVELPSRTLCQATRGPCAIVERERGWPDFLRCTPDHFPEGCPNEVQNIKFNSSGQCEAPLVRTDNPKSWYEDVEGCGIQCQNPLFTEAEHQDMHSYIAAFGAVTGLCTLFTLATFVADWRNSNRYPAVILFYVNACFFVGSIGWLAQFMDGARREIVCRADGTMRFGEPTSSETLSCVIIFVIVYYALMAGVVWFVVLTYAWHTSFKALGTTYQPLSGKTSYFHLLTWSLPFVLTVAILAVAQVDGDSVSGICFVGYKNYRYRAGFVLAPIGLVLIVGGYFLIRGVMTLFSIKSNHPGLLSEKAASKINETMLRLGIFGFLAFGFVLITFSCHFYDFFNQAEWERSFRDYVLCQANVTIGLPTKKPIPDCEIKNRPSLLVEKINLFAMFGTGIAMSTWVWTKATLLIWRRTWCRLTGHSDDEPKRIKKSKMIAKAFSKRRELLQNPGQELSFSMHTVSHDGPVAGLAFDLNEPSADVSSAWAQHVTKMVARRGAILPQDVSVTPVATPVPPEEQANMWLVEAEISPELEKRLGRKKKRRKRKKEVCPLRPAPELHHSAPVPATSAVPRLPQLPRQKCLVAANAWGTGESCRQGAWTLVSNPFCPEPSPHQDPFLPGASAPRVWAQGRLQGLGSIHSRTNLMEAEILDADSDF
# [7] = target: Protein smoothened (Rattus norvegicus) (UniProt P97698); assay: Antagonist activity at SMO in rat hepatocyte; type: functional, cell-based
# Protein smoothened (Rattus norvegicus), sequence (P97698 whole entry): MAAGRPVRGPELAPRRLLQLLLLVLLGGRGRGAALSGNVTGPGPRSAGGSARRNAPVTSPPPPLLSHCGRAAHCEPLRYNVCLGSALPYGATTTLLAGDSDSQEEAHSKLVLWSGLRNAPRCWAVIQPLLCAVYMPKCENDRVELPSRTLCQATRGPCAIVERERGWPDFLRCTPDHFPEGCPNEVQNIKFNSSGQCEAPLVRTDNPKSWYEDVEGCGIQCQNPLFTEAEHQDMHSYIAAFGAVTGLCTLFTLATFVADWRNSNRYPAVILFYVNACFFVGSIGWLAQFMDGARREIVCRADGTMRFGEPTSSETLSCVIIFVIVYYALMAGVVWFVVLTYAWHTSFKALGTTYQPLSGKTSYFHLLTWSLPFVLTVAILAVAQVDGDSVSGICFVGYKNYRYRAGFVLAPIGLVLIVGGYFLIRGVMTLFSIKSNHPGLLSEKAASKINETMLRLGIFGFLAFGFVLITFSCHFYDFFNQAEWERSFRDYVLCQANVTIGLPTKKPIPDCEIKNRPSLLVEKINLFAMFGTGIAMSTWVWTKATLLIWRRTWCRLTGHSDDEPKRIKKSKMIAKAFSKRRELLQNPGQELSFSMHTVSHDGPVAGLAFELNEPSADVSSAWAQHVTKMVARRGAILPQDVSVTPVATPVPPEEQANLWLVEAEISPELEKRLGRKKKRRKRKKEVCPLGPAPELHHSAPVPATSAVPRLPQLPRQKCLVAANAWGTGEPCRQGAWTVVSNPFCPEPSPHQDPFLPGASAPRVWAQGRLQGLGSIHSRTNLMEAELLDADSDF
IC50 [1] [nM],other results,SMILES
63,,O=C(Nc1ccc(-c2nc(-c3ccccc3)co2)cc1)c1ccccc1Cl
40,,O=C(Nc1ccc(-c2ncc(-c3ccccc3)o2)cc1)c1ccccc1Cl
79,,O=C(Cc1ccc(NC(=O)c2ccccc2Cl)cc1)c1ccccc1
13,clearance [2]: 23.3 mL/min/kg; metabolised at 0.5 h [3]: < 10%; bioavailability [4]: 12%; remaining at 0.5 h [5]: 3%,O=C(Nc1ccc(NC(=O)c2ccccc2Cl)cc1)c1ccccc1
6.4,,O=C(Nc1ccc(-c2cccc(-c3ccccc3)c2)cc1)c1ccccc1Cl
27,,O=C(Nc1ccc(-c2nc(-c3ccccc3)cs2)cc1)c1ccccc1Cl
44,,Cc1oc(-c2ccc(NC(=O)c3ccccc3Cl)cc2)nc1-c1ccccc1
33,,O=C(Nc1ccc(-c2cccc(-c3ccccc3)n2)cc1)c1ccccc1Cl
93,,O=C(Nc1ccc(-c2ccnc(-c3ccccc3)c2)cc1)c1ccccc1Cl
27,,O=C(Nc1ccc(-c2ccnc(-c3ccccc3)n2)cc1)c1ccccc1Cl
49,,O=C(Nc1ccc(/C=C/c2ccccc2)cc1)c1ccccc1Cl
109,,O=C(Nc1ccc(-c2csc(-c3ccccc3)n2)cc1)c1ccccc1Cl
14,,O=C(Nc1ccc(CC(O)c2ccccc2)cc1)c1ccccc1Cl (racemic)
37,,O=C(Nc1ccc(-c2nccc(-c3ccccc3)n2)cc1)c1ccccc1Cl
93,,O=C(Nc1ccc(-c2coc(-c3ccccc3)n2)cc1)c1ccccc1Cl
7.2,clearance [2]: 2.83 mL/min/kg; IC50 [6]: 26 nM; metabolised at 0.5 h [3]: 41%; bioavailability [4]: 27%,O=C(Nc1ccc(-c2cc(-c3ccccc3)ccn2)cc1)c1ccccc1Cl
28,,O=C(Nc1ccc(-c2cncc(-c3ccccc3)c2)cc1)c1ccccc1Cl
48,,O=C(Nc1ccc(-c2cc(-c3ccccc3)ncn2)cc1)c1ccccc1Cl
31,clearance [2]: 3.83 mL/min/kg; IC50 [6]: 17 nM; metabolised at 0.5 h [3]: < 10%; bioavailability [4]: 47%,O=C(Nc1ccc(-c2nc(-c3ccccc3)c(C(F)(F)F)o2)cc1)c1ccccc1Cl
89,,O=C(Nc1ccc(-c2nnc(-c3ccccc3)o2)cc1)c1ccccc1Cl
,inhibition [7]: inactive,CC(=O)Nc1ccc(NC(=O)c2ccccc2Cl)cc1
